Experimental data from patent US20050250752A1, “Cembranoids with chemopreventive activity” (priority 2002, published 2005).

Key:
[1] = tested on: papillomas (mouse skin carcinogenesis induced by DMBA/TPA); experiment: Two-stage mouse skin carcinogenesis model induced by DMBA/TPA; assay type: in vivo, mouse (female ICR); details: topical 85 nm 1 hour before TPA, ICR mice
Experimental: In the two-stage mouse skin carcinogenesis model induced by DMBA/TPA, the animals (specific pathogen-free female ICR, 6 weeks old) were divided into 5 groups, 15 mice each. The back of each mouse was shaved with surgical clippers, and the mice were topically treated with DMBA (100 μg, 390 nmol) in acetone (0.1 ml) as an initiation treatment. For the positive control group, 1 week after initiation with DMBA, mice were promoted by the application with TPA (1 μg, 1.7 nmol) in acetone (0.1 ml) twice a week. The other four groups received a topical application of each of the sarcophine semi-synthetic derivatives (85 nm) 1 hour before application of the tumor promoter. The incidence of papillomas was observed weekly for 20 weeks. The percentage of mice bearing papillomas and the average number of papillomas per mouse were recorded.

[2] = tested on: Raji cells; experiment: Viability of treated Raji cells (Trypan Blue staining); assay type: cell-based
Experimental: (§1) The inhibition of EBV-EA activation was assayed using Raji cells (virus non-producer type). The indicator cells (Raji, 1×10^6/ml) were incubated at 37° C. for 48 h in 1 ml of medium containing n-butyric acid (4 mmol), TPA(12-O-tetradecanoylphorbol 13-acetate)(32 pmol=20 ng in 2 μl DMSO) as inducer and various amounts of test compounds in 5 μl DMSO. Smears were made from the cell suspension, and the activated cells, which were stained by EBV-EA positive serum from nasopharygeal carcinoma patients were detected by an indirect immunofluorescence technique. For each compound, assays were performed in triplicate. The average EBV-EA induction of the test compounds was expressed as a relative ratio to the control experiment (100%), which was carried out only with n-butyric acid plus TPA. The viability of treated Raji cells was assayed by the Trypan Blue staining method.

[3] = tested on: Epstein-Barr virus early antigen (EBV-EA) of Raji cells induced by tumor promoter (TPA); experiment: Inhibition of EBV-EA activation induced by TPA in Raji cells; assay type: cell-based; details: for EBV-EA induction, percentage relative to the positive control value (100%): TPA 32 pmol, Raji cells, 48 h
Experimental: as §1

[4] = x 1000 mol ratio/TPA (32 nmol/mL)

C/C1=C\CCC2(C)OC2CC/C(C)=C/C=C(/[C@@](C)(O)CO)CC1 (stereo partly drawn) [Compound 11, 7,8-Epoxy-1,3,11-cembratriene-15R(α),16-diol]
Papilloma Bearer (%) ([1]; week 1 of promotion): 0.0%
Papillomas/mouse ([1]; week 1 of promotion): 0.0
Papilloma Bearer (%) ([1]; week 2 of promotion): 0.0%
Papillomas/mouse ([1]; week 2 of promotion): 0.0
Papilloma Bearer (%) ([1]; week 3 of promotion): 0.0%
Papillomas/mouse ([1]; week 3 of promotion): 0.0
Papilloma Bearer (%) ([1]; week 4 of promotion): 0.0%
Papillomas/mouse ([1]; week 4 of promotion): 0.0
Papilloma Bearer (%) ([1]; week 5 of promotion): 0.0%
Papillomas/mouse ([1]; week 5 of promotion): 0.0
Papilloma Bearer (%) ([1]; week 6 of promotion): 0.0%
Papillomas/mouse ([1]; week 6 of promotion): 0.0
Papilloma Bearer (%) ([1]; week 7 of promotion): 0.0%
Papillomas/mouse ([1]; week 7 of promotion): 0.0
Papilloma Bearer (%) ([1]; week 8 of promotion): 13.3%
Papillomas/mouse ([1]; week 8 of promotion): 0.6
Papilloma Bearer (%) ([1]; week 9 of promotion): 20.0%
Papillomas/mouse ([1]; week 9 of promotion): 1.3
Papilloma Bearer (%) ([1]; week 10 of promotion): 26.6%
Papillomas/mouse ([1]; week 10 of promotion): 1.6
Papilloma Bearer (%) ([1]; week 11 of promotion): 40.0%
Papillomas/mouse ([1]; week 11 of promotion): 1.9
Papilloma Bearer (%) ([1]; week 12 of promotion): 46.6%
Papillomas/mouse ([1]; week 12 of promotion): 2.1
Papilloma Bearer (%) ([1]; week 13 of promotion): 53.3%
Papillomas/mouse ([1]; week 13 of promotion): 2.4
Papilloma Bearer (%) ([1]; week 14 of promotion): 53.3%
Papillomas/mouse ([1]; week 14 of promotion): 2.7
Papilloma Bearer (%) ([1]; week 15 of promotion): 60.0%
Papillomas/mouse ([1]; week 15 of promotion): 3.0
Papilloma Bearer (%) ([1]; week 16 of promotion): 73.3%
Papillomas/mouse ([1]; week 16 of promotion): 3.4
Papilloma Bearer (%) ([1]; week 17 of promotion): 80.0%
Papillomas/mouse ([1]; week 17 of promotion): 3.7
Papilloma Bearer (%) ([1]; week 18 of promotion): 80.0%
Papillomas/mouse ([1]; week 18 of promotion): 4.2
Papilloma Bearer (%) ([1]; week 19 of promotion): 86.6%
Papillomas/mouse ([1]; week 19 of promotion): 4.7
Papilloma Bearer (%) ([1]; week 20 of promotion): 86.6%
Papillomas/mouse ([1]; week 20 of promotion): 5.1

CC1=CC=C([C@@](C)(O)CO)C[C@@H](O)C(C)=CCCC2(C)OC2CC1 (stereo partly drawn) [Compound 13, 7,8-Epoxy-1,3,11-cembratriene-13R(α),15R(α),16-triol]
viability percentage of Raji cells (indicator cells) ([2]; x 10 mol ratio/TPA): > 80%
viability percentage of Raji cells (indicator cells) ([2]; x 100 mol ratio/TPA): > 80%
viability percentage of Raji cells (indicator cells) ([2]; x 500 mol ratio/TPA): > 80%
viability percentage of Raji cells (indicator cells) [2, 4]: 60%
EBV-EA induction, percentage relative to the positive control value (100%) ([3]; x 10 mol ratio/TPA): 92.6%
EBV-EA induction, percentage relative to the positive control value (100%) ([3]; x 100 mol ratio/TPA): 72.9%
EBV-EA induction, percentage relative to the positive control value (100%) ([3]; x 500 mol ratio/TPA): 54.2%
EBV-EA induction, percentage relative to the positive control value (100%) [3, 4]: 5.7%

C/C1=C\C=C(\C(C)(O)CO)CC(=O)/C(C)=C/CCC2(C)OC2CC1 (stereo not drawn) [Compound 14, 7,8-Epoxy-13-oxo-1,3,11-cembratriene-15R(α),16-diol]
viability percentage of Raji cells (indicator cells) ([2]; x 10 mol ratio/TPA): > 80%
viability percentage of Raji cells (indicator cells) ([2]; x 100 mol ratio/TPA): > 80%
viability percentage of Raji cells (indicator cells) ([2]; x 500 mol ratio/TPA): > 80%
viability percentage of Raji cells (indicator cells) [2, 4]: 60%
EBV-EA induction, percentage relative to the positive control value (100%) ([3]; x 10 mol ratio/TPA): 94.0%
EBV-EA induction, percentage relative to the positive control value (100%) ([3]; x 100 mol ratio/TPA): 75.1%
EBV-EA induction, percentage relative to the positive control value (100%) ([3]; x 500 mol ratio/TPA): 56.7%
EBV-EA induction, percentage relative to the positive control value (100%) [3, 4]: 8.3%

C/C1=C\C=C(\C(C)(O)CO)CC/C(C=O)=C/CCC2(C)OC2CC1 (stereo not drawn) [Compound 15, 7,8-Epoxy-1,3,11-cembratriene-15R(α),16-diol-20-carboxyaldehyde]
viability percentage of Raji cells (indicator cells) ([2]; x 10 mol ratio/TPA): > 80%
viability percentage of Raji cells (indicator cells) ([2]; x 100 mol ratio/TPA): > 80%
viability percentage of Raji cells (indicator cells) ([2]; x 500 mol ratio/TPA): > 80%
viability percentage of Raji cells (indicator cells) [2, 4]: 60%
EBV-EA induction, percentage relative to the positive control value (100%) ([3]; x 10 mol ratio/TPA): 90.6%
EBV-EA induction, percentage relative to the positive control value (100%) ([3]; x 100 mol ratio/TPA): 71.3%
EBV-EA induction, percentage relative to the positive control value (100%) ([3]; x 500 mol ratio/TPA): 52.4%
EBV-EA induction, percentage relative to the positive control value (100%) [3, 4]: 3.6%

C/C1=C\C=C(\C(C)C)[C@@H](O)C/C(C)=C/CC/C(C)=C/CC1 [Sarcophytol-A, sarcophytol A, reference compound]
viability percentage of Raji cells (indicator cells) ([2]; x 10 mol ratio/TPA): > 80%
viability percentage of Raji cells (indicator cells) ([2]; x 100 mol ratio/TPA): > 80%
viability percentage of Raji cells (indicator cells) ([2]; x 500 mol ratio/TPA): > 80%
viability percentage of Raji cells (indicator cells) [2, 4]: 50%
inhibition of EBV-EA activation induced by TPA [3]: 88%
EBV-EA induction, percentage relative to the positive control value (100%) ([3]; x 10 mol ratio/TPA): 97.3%
EBV-EA induction, percentage relative to the positive control value (100%) ([3]; x 100 mol ratio/TPA): 79.1%
EBV-EA induction, percentage relative to the positive control value (100%) ([3]; x 500 mol ratio/TPA): 60.4%
EBV-EA induction, percentage relative to the positive control value (100%) [3, 4]: 11.7%
